From patent publication US8513251B2, “Pyridazinone compounds” (Takeda Pharmaceutical Company Limited, priority 2009, dated 2013)
Where two headings read alike, the source gives them in different places.

Tests used:
[1] = target: T1, Human PDE10A enzyme (Homo sapiens, UniProt Q9Y233); assay: PDE enzyme inhibition, SPA (Scintillation Proximity Assay); type: biochemical; settings: for inhibition at 0.1 µM: read-out: Percent inhibition (0.1 μM); for IC50: human PDE10A, [3H]cGMP substrate; for inhibition at 1 µM: compound at 1 μM, read-out: Percent inhibition (1 μM)
T1 construct: Human PDE10A enzyme was generated from Sf9 or COS-7 cells transfected with the full-length gene; His-tag; made in house; host or cells: Sf9 or COS-7 cells
Method: Human PDE10A enzyme was generated from Sf9 or COS-7 cells transfected with the full-length gene. Cloned enzyme was extracted from homogenized cell pellets. The extracted enzyme from Sf9 cells was partially purified using His-tag affinity column. The enzyme was stored at −70° C. until use. PDE activity was measured using a SPA (Scintillation Proximity Assay) (GE Healthcare). To evaluate the inhibitory activity, 10 μL of serial diluted compounds were incubated with 20 μL of PDE enzyme in assay buffer (50 mM HEPES-NaOH, 8.3 mM MgCl2, 1.7 mM EGTA, 0.1% BSA (pH 7.4)) for 30 min. at room temperature. Final concentration of DMSO in the assay was 1 percent as compounds were tested in duplicate in 96-well half-area plates (Corning). To start the reaction, 10 μL of substrate [3H] cGMP (25 or 50 nM; enclosed in SPA kits from GE Healthcare or purchased from PerkinElmer, respectively) was added for a final assay volume of 40 μL. After 60 min incubation at room temperature, yttrium SPA beads containing Zinc sulphate were added (20 μL at 6 mg/mL) to terminate the PDE reaction. After being settled for 60 min., assay plates were counted in a scintillation counter (PerkinElmer) to allow calculation of inhibition rate and IC50. Inhibition rate was calculated on the basis of 0% control wells with DMSO and 100% control wells without enzyme.

T1 sequence (Q9Y233 267-1055): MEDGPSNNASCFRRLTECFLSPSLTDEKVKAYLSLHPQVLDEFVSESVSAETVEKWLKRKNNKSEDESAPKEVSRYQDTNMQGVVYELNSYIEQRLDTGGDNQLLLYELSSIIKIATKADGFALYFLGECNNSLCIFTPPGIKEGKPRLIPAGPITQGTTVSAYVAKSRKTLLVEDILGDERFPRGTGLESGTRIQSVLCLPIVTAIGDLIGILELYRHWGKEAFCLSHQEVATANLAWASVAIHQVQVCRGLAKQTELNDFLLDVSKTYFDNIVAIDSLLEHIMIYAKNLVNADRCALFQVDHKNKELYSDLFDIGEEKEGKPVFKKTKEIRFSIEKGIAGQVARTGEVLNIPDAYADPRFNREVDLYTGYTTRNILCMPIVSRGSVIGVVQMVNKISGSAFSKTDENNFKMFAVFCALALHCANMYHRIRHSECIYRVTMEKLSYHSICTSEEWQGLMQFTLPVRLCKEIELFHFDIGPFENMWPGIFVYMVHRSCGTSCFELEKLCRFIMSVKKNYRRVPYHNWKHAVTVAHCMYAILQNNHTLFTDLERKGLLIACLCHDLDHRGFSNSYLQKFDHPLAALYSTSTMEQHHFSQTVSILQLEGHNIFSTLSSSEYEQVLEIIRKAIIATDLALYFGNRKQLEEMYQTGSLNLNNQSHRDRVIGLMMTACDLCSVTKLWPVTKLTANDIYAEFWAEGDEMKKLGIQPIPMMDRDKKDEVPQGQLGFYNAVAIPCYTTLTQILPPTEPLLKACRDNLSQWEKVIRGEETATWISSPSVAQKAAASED

| SMILES | inhibition at 0.1 µM ([1]; Table 2, compound at 0.1 μM) | IC50 ([1]; Table 2) | other results |
| --- | --- | --- | --- |
| O=c1ccn(-c2cccc(C(F)(F)F)c2)nc1-c1cc(C(F)(F)F)nn1-c1ccccc1 [Example 70, 3-[1-Phenyl-3-(trifluoromethyl)-1H-pyrazol-5-yl]-1-[3-(trifluoromethyl)phenyl]pyridazin-4(1H)-one] | – | – | melting point: 190 to 191 °C |
| N#Cc1ccc(-n2ccc(=O)c(-c3ccnn3-c3ccccc3)n2)cc1 [Example 46, 4-[4-Oxo-3-(1-phenyl-1H-pyrazol-5-yl)pyridazin-1(4H)-yl]benzonitrile] | – | – | inhibition at 1 µM ([1]; Table 1): 97%; IC50 ([1]; Table 1): 10 to 200 nM |
| COc1cn(-c2ccc(N3CC(F)(F)C3)cc2F)nc(-c2ccnn2-c2ccccc2)c1=O [Example 102, 1-[4-(3,3-Difluoroazetidin-1-yl)-2-fluorophenyl]-5-methoxy-3-(1-phenyl-1H-pyrazol-5-yl)pyridazin-4(1H)-one] | 103% | < 10 nM | – |
| COc1cn(-c2ccc(-n3cccn3)cc2F)nc(-c2ccnn2-c2ccccc2)c1=O [Example 120, 1-[2-Fluoro-4-(1H-pyrazol-1-yl)phenyl]-5-methoxy-3-(1-phenyl-1H-pyrazol-5-yl)pyridazin-4(1H)-one] | – | – | inhibition at 0.1 µM [1]: 100% |
| CCOc1cn(-c2cccc(C(F)(F)F)c2)nc(-c2ccnn2-c2ccccc2)c1=O [Example 59, 5-Ethoxy-3-(1-phenyl-1H-pyrazol-5-yl)-1-[3-(trifluoromethyl)phenyl]pyridazin-4(1H)-one] | – | – | inhibition at 1 µM ([1]; Table 1): 96%; IC50 ([1]; Table 1): 10 to 200 nM |
| COc1cn(-c2ccc(-n3cccn3)cc2F)nc(-c2ccnn2-c2cccc(Cl)c2)c1=O [Example 164, 3-[1-(3-Chlorophenyl)-1H-pyrazol-5-yl]-1-[2-fluoro-4-(1H-pyrazol-1-yl)phenyl]-5-methoxypyridazin-4(1H)-one] | 101% | < 10 nM | – |
| O=c1ccn(-c2ccc(S(=O)(=O)N3CCOCC3)cc2)nc1-c1ccnn1-c1ccccc1 [Example 48, 1-[4-(Morpholin-4-ylsulfonyl)phenyl]-3-(1-phenyl-1H-pyrazol-5-yl)pyridazin-4(1H)-one] | – | – | inhibition at 1 µM ([1]; Table 1): 100%; IC50 ([1]; Table 1): < 10 nM |
| COc1cn(-c2ccc(-n3nccc3OC(F)F)cc2F)nc(-c2ccnn2-c2ccccc2)c1=O [Example 123, 1-{4-[5-(Difluoromethoxy)-1H-pyrazol-1-yl]-2-fluorophenyl}-5-methoxy-3-(1-phenyl-1H-pyrazol-5-yl)pyridazin-4(1H)-one] | 99% | < 10 nM | – |
| COc1cn(-c2ccc(-n3c(=O)ccn3C(F)F)cc2F)nc(-c2ccnn2-c2ccccc2)c1=O [Example 124, 1-{4-[2-(Difluoromethyl)-5-oxo-2,5-dihydro-1H-pyrazol-1-yl]-2-fluorophenyl}-5-methoxy-3-(1-phenyl-1H-pyrazol-5-yl)pyridazin-4(1H)-one] | 97% | < 10 nM | – |
| COc1cn(-c2ccc(-c3cnn(C(F)F)c3)cc2F)nc(-c2ccnn2-c2ccccc2)c1=O [Example 116, 1-{4-[1-(Difluoromethyl)-1H-pyrazol-4-yl]-2-fluorophenyl}-5-methoxy-3-(1-phenyl-1H-pyrazol-5-yl)pyridazin-4(1H)-one] | 99% | < 10 nM | – |
| COc1cn(-c2ccc(N3CC(C)(C)OC3=O)cc2F)nc(-c2ccnn2-c2ccccc2)c1=O [Example 190, 1-[4-(5,5-Dimethyl-2-oxo-1,3-oxazolidin-3-yl)-2-fluorophenyl]-5-methoxy-3-(1-phenyl-1H-pyrazol-5-yl)pyridazin-4(1H)-one] | 100% | < 10 nM | – |
| COc1cn(-c2cccc(-c3cnn(C)c3)c2F)nc(-c2ccnn2-c2ccccc2)c1=O [Example 113, 1-[2-Fluoro-3-(1-methyl-1H-pyrazol-4-yl)phenyl]-5-methoxy-3-(1-phenyl-1H-pyrazol-5-yl)pyridazin-4(1H)-one] | 99% | < 10 nM | – |
| NC(=O)c1ccc(-n2ccc(=O)c(-c3ccnn3-c3ccccc3)n2)cc1 [Example 49, 4-[4-Oxo-3-(1-phenyl-1H-pyrazol-5-yl)pyridazin-1(4H)-yl]benzamide] | – | – | inhibition at 1 µM ([1]; Table 1): 98%; IC50 ([1]; Table 1): < 10 nM |

More lines, main results first:

| inhibition at 0.1 µM ([1]; Table 2, compound at 0.1 μM) | IC50 ([1]; Table 2) | SMILES | other results |
| --- | --- | --- | --- |
| 99% | < 10 nM | COc1cn(-c2ccc(N3CC(F)(F)C(F)(F)C3)cc2F)nc(-c2ccnn2-c2ccccc2)c1=O [Example 104, 1-[2-Fluoro-4-(3,3,4,4-tetrafluoropyrrolidin-1-yl)phenyl]-5-methoxy-3-(1-phenyl-1H-pyrazol-5-yl)pyridazin-4(1H)-one] | – |
| 101% | < 10 nM | COc1cn(-c2ccc(-n3cccn3)cc2F)nc(-c2ccnn2-c2ccccc2F)c1=O [Example 163, 3-[1-(2-Fluorophenyl)-1H-pyrazol-5-yl]-1-[2-fluoro-4-(1H-pyrazol-1-yl)phenyl]-5-methoxypyridazin-4(1H)-one] | – |
| 100% | < 10 nM | COc1cn(-c2ccc(N3CCC(F)(F)CC3)cc2F)nc(-c2ccnn2-c2ccccc2)c1=O [Example 106, 1-[4-(4,4-Difluoropiperidin-1-yl)-2-fluorophenyl]-5-methoxy-3-(1-phenyl-1H-pyrazol-5-yl)pyridazin-4(1H)-one] | – |
| 96% | < 10 nM | COc1cn(-c2ccc(-n3cc(Cl)cn3)cc2F)nc(-c2ccnn2-c2ccccc2)c1=O [Example 180, 1-[4-(4-Chloro-1H-pyrazol-1-yl)-2-fluorophenyl]-5-methoxy-3-(1-phenyl-1H-pyrazol-5-yl)pyridazin-4(1H)-one] | – |
| 100% | < 10 nM | COc1cn(-c2ccc(N3CC(C)(C)CC3=O)cc2F)nc(-c2ccnn2-c2ccccc2)c1=O [Example 189, 1-[4-(4,4-Dimethyl-2-oxopyrrolidin-1-yl)-2-fluorophenyl]-5-methoxy-3-(1-phenyl-1H-pyrazol-5-yl)pyridazin-4(1H)-one] | – |
| 99% | < 10 nM | COc1cn(-c2ccc(N3CCOC3=O)cc2F)nc(-c2ccnn2-c2ccccc2)c1=O [Example 109, 1-[2-Fluoro-4-(2-oxo-1,3-oxazolidin-3-yl)phenyl]-5-methoxy-3-(1-phenyl-1H-pyrazol-5-yl)pyridazin-4(1H)-one] | – |
| 96% | < 10 nM | COc1cn(-c2ccc(N3CC=CC3)cc2F)nc(-c2ccnn2-c2ccccc2)c1=O [Example 179, 1-[4-(2,5-Dihydro-1H-pyrrol-1-yl)-2-fluorophenyl]-5-methoxy-3-(1-phenyl-1H-pyrazol-5-yl)pyridazin-4(1H)-one] | – |
| 101% | < 10 nM | COc1cc(-n2cccn2)ccc1-n1cc(OC)c(=O)c(-c2ccnn2-c2ccccc2)n1 [Example 192, 5-Methoxy-1-[2-methoxy-4-(1H-pyrazol-1-yl)phenyl]-3-(1-phenyl-1H-pyrazol-5-yl)pyridazin-4(1H)-one] | – |
| 103% | < 10 nM | COc1cn(-c2ccc(N3CCCC3=O)cc2F)nc(-c2ccnn2-c2ccccc2)c1=O [Example 108, 1-[2-Fluoro-4-(2-oxopyrrolidin-1-yl)phenyl]-5-methoxy-3-(1-phenyl-1H-pyrazol-5-yl)pyridazin-4(1H)-one] | – |
| 92% | < 10 nM | COc1cn(-c2ccc(N3CCN(C)C3=O)cc2F)nc(-c2ccnn2-c2ccccc2)c1=O [Example 178, 1-[2-fluoro-4-(3-methyl-2-oxoimidazolidin-1-yl)phenyl]-5-methoxy-3-(1-phenyl-1H-pyrazol-5-yl)pyridazin-4(1H)-one] | – |
| 100% | < 10 nM | COc1cn(-c2ccc(N3CCC(C)(O)CC3)cc2F)nc(-c2ccnn2-c2ccccc2)c1=O [Example 186, 1-[2-Fluoro-4-(4-hydroxy-4-methylpiperidin-1-yl)phenyl]-5-methoxy-3-(1-phenyl-1H-pyrazol-5-yl)pyridazin-4(1H)-one] | – |
| 100% | < 10 nM | COc1cn(-c2ccc(-n3cc(F)c(F)c3)cc2F)nc(-c2ccnn2-c2ccccc2)c1=O [Example 119, 1-[4-(3,4-Difluoro-1H-pyrrol-1-yl)-2-fluorophenyl]-5-methoxy-3-(1-phenyl-1H-pyrazol-5-yl)pyridazin-4(1H)-one] | – |
| 102% | < 10 nM | COc1cn(-c2ccc(-c3cnn(C)c3)cc2F)nc(-c2ccnn2-c2ccccc2)c1=O [Example 114, 1-[2-Fluoro-4-(1-methyl-1H-pyrazol-4-yl)phenyl]-5-methoxy-3-(1-phenyl-1H-pyrazol-5-yl)pyridazin-4(1H)-one] | – |
| 97% | < 10 nM | COc1cn(-c2ccc(-n3ccnc3)cc2F)nc(-c2ccnn2-c2ccccc2)c1=O [Example 111, 1-[2-Fluoro-4-(1H-imidazol-1-yl)phenyl]-5-methoxy-3-(1-phenyl-1H-pyrazol-5-yl)pyridazin-4(1H)-one] | – |
| 99% | < 10 nM | COc1cn(-c2ccc(N3CCC(F)(F)C3)cc2F)nc(-c2ccnn2-c2ccccc2)c1=O [Example 103, 1-[4-(3,3-Difluoropyrrolidin-1-yl)-2-fluorophenyl]-5-methoxy-3-(1-phenyl-1H-pyrazol-5-yl)pyridazin-4(1H)-one] | – |
